In data set [1] the test system is S. aureus SAP0017 (MRSA).
The test system of the next data set is P. acnes. In kind it is cell-based, Propionibacterium acnes.
The subject of data set [2] is histamine induced IL-6 expression. The data set can be described thus: Anti-inflammatory activity in keratinocytes (data not shown). The settings on record: human skin keratinocytes. It counts as cell-based. From the text:
We modified both peptides via N-terminal acetylation with lipids of various lengths to the alpha amino group of KPV and KdPT.

Data set [3] has as its system EpiDerm (EPI-200) skin tissue. The data set is described as follows: Skin tissue toxicity, EpiDerm skin model with MTT assay. To be noted: tissue viability (MTT), treated 20 hr. It counts as cell-based. The protocol: 4. Skin tissue toxicity determination. Skin toxicity and compatibility was determined using EpiDerm (EPI-200) skin tissue and MTT Kit (MTT-100) (MatTek, Ashland, Mass.) according to the manufacture's instruction. 1% Triton X-100 and PBS were used as positive (toxic) and negative (non-toxic) control, respectively.
Potential for dermal irritancy of the lipodipeptides was tested using EpiDerm™ Skin Model (MatTek, Ashland, Mass.) in combination with a modified MTT assay. […] EpiDerm™ consists of organized basal, spinous, granular, and cornified layers analogous to those found in vivo. The tissues were treated with each compound at desired concentration for 20 hr.

The test system of data set [4] is S. aureus SAP0017 (MRSA). In kind it is cell-based, Staphylococcus aureus. To be noted: for logs of S. aureus eradicated in a kill assay: SAP0017. The protocol: (§1) 3. […] The minimal inhibitory concentration (MIC) of each peptide was determined using modified CLSI microtiter broth dilution assay (Methods for Dilution Antimicrobial Susceptibility Tests for Bacteria That Grow Aerobically; Approved Standard—Ninth Edition). An inoculum of 10^5-10^6 colony forming units (CFU)/ml was used or 10^4 CFU/ml for yeast. The MIC value was taken as the lowest peptide concentration at which more than 90% of microbial growth was inhibited after 15 to 20 h of incubation at 37° C. For P. acnes, the incubation was kept under anaerobic condition at 37° C. for 2 weeks before MIC was determined Kill kinetics was performed using a given concentration (about 2-5-fold MIC) of peptide mixed with indicator microorganism. After appropriate dilution the cells were plated on agar plates after defined time intervals and incubated at 37° C. overnight. In the case of P. acnes an extended incubation period was required. The CFU was counted and plotted as survival of bacteria after peptide treatment over time, which indicates the effectiveness of a peptide to kill a microbe.

A further data set has as its system P. acnes ATCC11827. The data set is described as follows: Kill kinetics in PBS. The settings on record: detection limit 10 CFU/ml. It counts as cell-based, Propionibacterium acnes. The protocol: as §1
The subject of data set [5] is C. albicans strain SC5314. To be noted: Rauch et al. 2009; cited from earlier work.
Data set [6] concerns S. aureus and C. albicans. To be noted: Cutuli et al. 2000, no MIC determined; cited from earlier work.

≈ marks a conversion by molar mass, not a printed value. Where a SMILES comes first, the peptide text is derived from it. [ ]: non-standard residue; d: D form. The star is where a group is joined. Palmitoyl = CCCCCCCCCCCCCCCC(=O)* Where only a bound is given, the exact number is not on record here.

The values below come from patent US9278994B2, “Short antimicrobial lipopeptides” (Helix BioMedix Inc., priority 2012, dated 2016).

On to `NCCCC[C@H](N)C(=O)N1CCC[C@H]1C(N)=O` [HB2230, KP-NH2] (H-Lys-Pro-NH2; N-terminus assumed), for which, in the data set with C. albicans 105, the “MIC C. albicans” value is >2000 µg/mL. The “MIC E. coli” value against E. coli UB1005 is >2000 µg/mL. The “MIC S. aureus” value against S. aureus SAP0017 (MRSA) [1] was >2000 µg/mL. Besides, the “MIC P. acnes” value in the data set on P. acnes was >2000 µg/mL. Further, the “anti-inflammatory activity against histamine induced IL-6 expression” value in data set [2] is “moderate anti-inflammatory activity”.

As for `CCCCCCCCCCCCCCCC(=O)N[C@@H](CCCCN)C(=O)N1CCC[C@@H]1C(=O)N[C@H](C(N)=O)[C@@H](C)O` [HB2178, Pal-K-dPT-NH2] (Palmitoyl-Lys-[dP]-Thr-NH2), the “MIC C. albicans” value in the data set on C. albicans 105 turned out to be 16 µg/mL (≈ 0.0275 mM). Also, the “MIC P. acnes” value in the data set with P. acnes is 2 µg/mL (≈ 0.00344 mM). Also, the “Toxicity EpiDerm” value in data set [3] is >2000 µg/mL. For the same compound, the “survival of microbes (CFU/ml), 0 hr” value in the data set with S. aureus SAP0017 (MRSA) [4] (S. aureus in PBS, 0 hr, detection limit 10 CFU/ml) is given as 23050000 CFU/ml; with P. acnes ATCC11827 (0 hr), 750000 CFU/ml. For the same compound, the “survival of microbes (CFU/ml), 20 min” value is reported as <10 CFU/ml in the data set on S. aureus SAP0017 (MRSA) [4] (S. aureus in PBS, 20 min, detection limit 10 CFU/ml) and 20 CFU/ml in the data set on P. acnes ATCC11827 (20 min). Besides, the “survival of microbes (CFU/ml), 1 hr” value is listed as <10 CFU/ml in the data set on S. aureus SAP0017 (MRSA) [4] (S. aureus in PBS, 1 hr, detection limit 10 CFU/ml) and <10 CFU/ml with P. acnes ATCC11827 (1 hr). Besides, the “survival of microbes (CFU/ml), 2 hr” value was <10 CFU/ml in the data set with S. aureus SAP0017 (MRSA) [4] (S. aureus in PBS, 2 hr, detection limit 10 CFU/ml) and <10 CFU/ml in the data set with P. acnes ATCC11827 (2 hr). For the same compound, the “survival of microbes (CFU/ml), 3 hr” value was <10 CFU/ml in the data set on S. aureus SAP0017 (MRSA) [4] (S. aureus in PBS, 3 hr, detection limit 10 CFU/ml) and <10 CFU/ml with P. acnes ATCC11827 (3 hr). For the same compound, the “logs of S. aureus eradicated in a kill assay” value in the data set on S. aureus SAP0017 (MRSA) [4] is 5-6 logs.

Consider `CCCCCCCCCCCCCCCC(=O)N[C@@H](CCCCN)C(=O)N1CCC[C@H]1C(=O)N[C@@H](CC(C)C)C(N)=O` [HB2209, Pal-KPL-NH2] (Palmitoyl-Lys-Pro-Leu-NH2), for which the “MIC C. albicans” value against C. albicans 105 worked out at 32 µg/mL (≈ 0.0539 mM). The “MIC E. coli” value in the data set with E. coli UB1005 is >2000 µg/mL. In addition, in the data set with S. aureus SAP0017 (MRSA) [1], the “MIC S. aureus” value worked out at 16 µg/mL (≈ 0.0269 mM). The “MIC P. acnes” value in the data set with P. acnes was in the range of 4 to 8 µg/mL. Moreover, in data set [3], the “Toxicity EpiDerm” value was >2000 µg/mL. Besides, in the data set on S. aureus SAP0017 (MRSA) [4], the “logs of S. aureus eradicated in a kill assay” value was 5-6 logs.

With lysine-proline-valine [KPV], the “concentration up to which yeast growth was not inhibited” value in [5] is > 100 µM. The “antimicrobial activity in phosphate buffer” value in [6] is reported as “antimicrobial activity”.

On to `NCCCC[C@H](N)C(=O)N1CCC[C@@H]1C(N)=O` [HB2231, K-dP-NH2] (H-Lys-[dP]-NH2; N-terminus assumed), for which the “MIC C. albicans” value in the data set on C. albicans 105 was >2000 µg/mL. Moreover, the “MIC E. coli” value against E. coli UB1005 is >2000 µg/mL. Besides, the “MIC S. aureus” value against S. aureus SAP0017 (MRSA) [1] is >2000 µg/mL. In addition, the “MIC P. acnes” value in the data set on P. acnes is >2000 µg/mL. In addition, the “anti-inflammatory activity against histamine induced IL-6 expression” value in data set [2] is “moderate anti-inflammatory activity”.
